Data: patent publication US20020137929A1, “1 - (3-heterocyclylphenyl) isothiourea, -isourea, -guanidine and -amidine herbicidal agents” (Intellectual Property Department, BASF Aktiengesellschaft, priority 1998, published 2002)

How the values were obtained:
[1] = system: ABUTH (Velvetleaf); experiment: Preemergence herbicidal evaluation; assay type: in vivo, Abutilon theophrasti; conditions: rated 4-5 weeks after treatment
In short: (§1)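 In this greenhouse assay, monocot and dicot seeds are planted in soil and treated prior to emergence with an aqueous acetone spray (about 0.0156-0.500 kg/ha). Plants are assessed visually against control on a 0-9 scale after 4-5 weeks.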

[2] = system: SAGPY (Arrowhead (Pygmaea)); experiment: Preemergence weed control under flooded paddy conditions; assay type: in vivo, Sagittaria pygmaea; conditions: rated 3-4 weeks after treatment
In short: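 First, seeds or propagules go into the top 0.5 cm of silt loam; next, water is held 1.5 to 3 cm over the soil; then compound (50/50 acetone/water) is pipetted into it at about 0.0313 to 0.500 kg/ha; finally plants are rated visually 0-9 after three to four weeks.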

[3] = system: TRZAWR (Wheat, Winter, cv Riband); experiment: Preemergence herbicidal evaluation; assay type: in vivo, Triticum aestivum; conditions: rated 4-5 weeks after treatment
In short: as §1

[4] = system: CYPIR (Rice Flatsedge); experiment: Preemergence weed control under flooded paddy conditions; assay type: in vivo, Cyperus iria; conditions: rated 3-4 weeks after treatment
In short: (§2)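 Seeds or propagules sown in top 0.5 cm of silt loam soil, flooded 1.5 to 3 cm above surface throughout. Compound in 50/50 v/v aqueous/acetone pipetted into flood water at about 0.0313 to 0.500 kg/ha. Visual 0-9 rating versus control after three to four weeks in greenhouse.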

[5] = system: ECHORC (Watergrass (Calif.)); experiment: as above; assay type: in vivo, Echinochloa oryzoides; conditions: rated 3-4 weeks after treatment
In short: as §2

[6] = rate 0.0156 kg/ha, rating scale 0-9
[7] = rate 0.0313 kg/ha, rating scale 0-9
[8] = rate 0.0625 kg/ha, rating scale 0-9
[9] = rate 0.1250 kg/ha, rating scale 0-9
[10] = rate 0.2500 kg/ha, rating scale 0-9

Compound	herbicidal effect rating, SAGPY ([2]; 0.0313 kg/ha)	herbicidal effect rating, SAGPY ([2]; 0.0625 kg/ha)	herbicidal effect rating, SAGPY ([2]; 0.1250 kg/ha)	herbicidal effect rating, SAGPY ([2]; 0.2500 kg/ha)	herbicidal effect rating, CYPIR ([4]; 0.0313 kg/ha)	herbicidal effect rating, CYPIR ([4]; 0.0625 kg/ha)	herbicidal effect rating, CYPIR ([4]; 0.1250 kg/ha)	herbicidal effect rating, CYPIR ([4]; 0.2500 kg/ha)	herbicidal effect rating, ECHORC ([5]; 0.0313 kg/ha)	herbicidal effect rating, ECHORC ([5]; 0.0625 kg/ha)	herbicidal effect rating, ECHORC ([5]; 0.1250 kg/ha)	herbicidal effect rating, ECHORC ([5]; 0.2500 kg/ha)	Preemergence herbicidal rating ABUTH ([1]; 0.0156 kg/ha)	Preemergence herbicidal rating ABUTH ([1]; 0.0313 kg/ha)	Preemergence herbicidal rating ABUTH ([1]; 0.0625 kg/ha)	Preemergence herbicidal rating ABUTH ([1]; 0.1250 kg/ha)	Preemergence herbicidal rating ABUTH ([1]; 0.2500 kg/ha)	Preemergence herbicidal rating TRZAWR ([3]; 0.0156 kg/ha)	Preemergence herbicidal rating TRZAWR ([3]; 0.0313 kg/ha)	Preemergence herbicidal rating TRZAWR ([3]; 0.0625 kg/ha)	also measured
Cn1c(C(F)(F)F)cc(=O)n(-c2cc(N=C3SCC(=O)N3Cc3ccc(F)cc3)c(Cl)cc2F)c1=O [Compound 151, 3-{4-Chloro-2-fluoro-5-{[3-(p-fluorobenzyl)-4-oxo-2-thiazolidinylidene]amino}phenyl}-1-methyl-6-(trifluoromethyl)-2,4(1H,3H)-pyrimidinedione]	0.0	2.0	8.0	6.0	0.0	2.0	6.0	8.0	3.0	5.0	9.0	9.0	–	–	–	–	–	–	–	–	Preemergence herbicidal rating ABUTH [1, 6]: 9.0; Preemergence herbicidal rating ABUTH [1, 7]: 9.0; Preemergence herbicidal rating ABUTH [1, 8]: 9.0; Preemergence herbicidal rating ABUTH [1, 9]: 9.0; Preemergence herbicidal rating ABUTH [1, 10]: 9.0; Preemergence herbicidal rating TRZAWR [3, 6]: 2.0; Preemergence herbicidal rating TRZAWR [3, 7]: 6.0; Preemergence herbicidal rating TRZAWR [3, 8]: 5.0; Preemergence herbicidal rating TRZAWR [3, 9]: 8.0; Preemergence herbicidal rating TRZAWR [3, 10]: 9.0
CCOC(=O)CN1C(=O)C(Br)SC1=Nc1cc(-n2c(=O)cc(C(F)(F)F)n(C)c2=O)c(F)cc1Cl (stereo not shown) [Compound 153, Ethyl 5-bromo-2-[{2-chloro-5-[3,6-dihydro-3-methyl-2,6-dioxo-4-(trifluoromethyl)-1(2H)-pyrimidinyl]-4-fluorophenyl}imino}-4-oxo-3-thiazolidineacetate]	–	0.0	0.0	0.0	–	0.0	0.0	3.0	–	0.0	0.0	0.0	–	–	–	–	–	–	–	–	Preemergence herbicidal rating ABUTH [1, 9]: 0.0; Preemergence herbicidal rating ABUTH [1, 10]: 2.0; Preemergence herbicidal rating TRZAWR [3, 9]: 0.0; Preemergence herbicidal rating TRZAWR [3, 10]: 0.0
C=C1SC(=Nc2cc(-n3c(=O)cc(C(F)(F)F)n(C)c3=O)c(F)cc2Cl)N(CC(=O)OCC)C1=O [Compound 154]	2.0	4.0	5.0	6.0	2.0	3.0	4.0	6.0	3.0	4.0	7.0	7.0	–	–	–	–	–	–	–	–	Preemergence herbicidal rating ABUTH [1, 6]: 9.0; Preemergence herbicidal rating ABUTH [1, 7]: 9.0; Preemergence herbicidal rating ABUTH [1, 8]: 9.0; Preemergence herbicidal rating ABUTH [1, 9]: 9.0; Preemergence herbicidal rating ABUTH [1, 10]: 9.0; Preemergence herbicidal rating TRZAWR [3, 6]: 0.0; Preemergence herbicidal rating TRZAWR [3, 7]: 2.0; Preemergence herbicidal rating TRZAWR [3, 8]: 8.0; Preemergence herbicidal rating TRZAWR [3, 9]: 8.0; Preemergence herbicidal rating TRZAWR [3, 10]: 9.0
CCN1C(=O)CSC1=Nc1cc(-n2c(=O)cc(C(F)(F)F)n(C)c2=O)c(F)cc1Cl [Compound 159, 3-{4-Chloro-5-[(3-ethyl-4-oxo-2-thiazolidinyl-idene)amino]-2-fluorophenyl}-1-methyl-6-(trifluoromethyl)-2,4(1H,3H)-pyrimidinedione]	0.0	3.0	3.0	6.0	0.0	0.0	3.0	4.0	2.0	4.0	5.0	7.0	2.0	9.0	9.0	9.0	9.0	0.0	0.0	0.0	Preemergence herbicidal rating TRZAWR ([3]; 0.1250 kg/ha): 1.0; Preemergence herbicidal rating TRZAWR ([3]; 0.2500 kg/ha): 3.0
CCOC(=O)CN1C(=O)C(OC)SC1=Nc1cc(-n2c(=O)cc(C(F)(F)F)n(C)c2=O)c(F)cc1Cl (stereo not shown) [Compound 160, Ethyl 2-{{2-chloro-5-[3,6-dihydro-3-methyl-2,6-dioxo-4-(trifluoromethyl)-1(2H)-pyrimidinyl]-4-fluorophenyl}imino}-5-methoxy-4-oxo-3-thiazolidineacetate]	0.0	2.0	5.0	8.0	0.0	3.0	6.0	9.0	0.0	0.0	2.0	4.0	5.0	9.0	9.0	9.0	9.0	0.0	0.0	1.0	Preemergence herbicidal rating ABUTH ([1]; 0.5000 kg/ha): 9.0; Preemergence herbicidal rating TRZAWR ([3]; 0.1250 kg/ha): 1.0; Preemergence herbicidal rating TRZAWR ([3]; 0.2500 kg/ha): 4.0; Preemergence herbicidal rating TRZAWR ([3]; 0.5000 kg/ha): 7.0
CC(C)N1C(=O)CSC1=Nc1cc(-n2c(=O)cc(C(F)(F)F)n(C)c2=O)c(F)cc1Cl [Compound 164, 3-{4-Chloro-2-fluoro-5-[(3-isopropyl-4-oxo-2-thiazolidinylidene)amino]phenyl}-1-methyl-6-(trifluoromethyl)-2,4(1H,3H)-pyrimidinedione]	4.0	4.0	5.0	6.0	3.0	5.0	6.0	9.0	6.0	7.0	9.0	9.0	6.0	9.0	9.0	9.0	9.0	1.0	1.0	4.0	Preemergence herbicidal rating ABUTH ([1]; 0.5000 kg/ha): 9.0; Preemergence herbicidal rating TRZAWR ([3]; 0.1250 kg/ha): 6.0; Preemergence herbicidal rating TRZAWR ([3]; 0.2500 kg/ha): 7.0; Preemergence herbicidal rating TRZAWR ([3]; 0.5000 kg/ha): 9.0
Cn1c(C(F)(F)F)cc(=O)n(-c2cc(N=C3SCC(=O)N3C3CCCC3)c(Cl)cc2F)c1=O [Compound 166, 3-{4-Chloro-5-[(3-cyclopentyl-4-oxo-2-thiazolidinylidene)amino]-2-fluorophenyl}-1-methyl-6-(trifluoromethyl)-2,4(1H,3H)-pyrimidinedione]	2.0	4.0	5.0	6.0	2.0	2.0	6.0	9.0	2.0	2.0	2.0	4.0	0.0	2.0	1.0	7.0	9.0	0.0	0.0	1.0	Preemergence herbicidal rating ABUTH ([1]; 0.5000 kg/ha): 9.0; Preemergence herbicidal rating TRZAWR ([3]; 0.1250 kg/ha): 1.0; Preemergence herbicidal rating TRZAWR ([3]; 0.2500 kg/ha): 1.0; Preemergence herbicidal rating TRZAWR ([3]; 0.5000 kg/ha): 3.0
